Experiments:
[1] = Particle size analysis of dry-milled products (laser diffraction, Shimadzu SALD-2300); assay type: physicochemical
Experimental: Milling was performed for Examples 1a to 1c using an air jet mill (Equipment code: CP-AJM-01; Promas engineers) with the following parameters: Micronisation was repeated in all examples by performing the air jet milling for a second time using the same parameters. This allowed the particle size D90 to be reduced to less than 10 μm. [table] Four drops of Tween 20 were added to 25 mL of water and the mixture was sonicated for 3 minutes to form the dispersant solution. 0.05 g of milled material was transferred into a 250 mL glass beaker. 25 mL of the dispersant solution (Tween 20/water mixture) was added to the beaker with continuous swirling for 2 to 3 minutes. The suspension was transferred into the measuring unit and the particle size distribution measurements were conducted in triplicate.

[2] = Single dose oral pharmacokinetic studies in rabbits; assay type: in vivo, male New Zealand White rabbits; settings: for Plasma concentration, mean: 90 mg/kg b.w. oral; for AUCextrap / AUC(0-inf) / AUC(0-t) / Cmax / MRT last / Tmax / half-life: 90 mg/kg b.w. oral single dose; for AUC(0-inf) / AUC(0-t) / Cmax / MRT last / Tmax / half-life: male, New Zealand White, plasma, po, 90 mg/kg
Experimental: The studies detailed below (and referred to as Examples 2 to 8) were conducted to provide comparative single dose oral pharmacokinetics data for Compound 1, as well as sodium and potassium salts of that compound, using non-coated and enteric-coated capsules in male New Zealand White rabbits.
Compound 1 was made using the process described in WO 2011/004162 and milled as described for Example 1c. The non-coated or enteric coated gelatin capsules were individually filled with 180 mg of dry-milled Compound 1 together with accompanying excipients as indicated. Both capsule types were filled with Compound 1 together with 1.8 mg of sodium docusate, 0.18 mg of PVP K30 and 9 mg of mannitol.
Similarly, Compound 2, non-coated or enteric coated gelatin capsules were individually filled with 180 mg of dry-milled Compound 2 (as obtained in Example 1f) together with 1.8 mg of sodium docusate, 0.18 mg of PVP K30 and 9 mg of mannitol.
For Compound 3, non-coated or enteric coated gelatin capsules were individually filled with 90 mg of dry-milled Compound 3 (as obtained in Example 1i) together with 0.90 mg of sodium docusate, 0.09 mg of PVP K30 and 4.50 mg of mannitol.
40 mL of the 2% w/v methyl cellulose solution was added to a 250 mL conical flask together with 10 g of 2 mm glass beads, and vigorously stirred. Compound 1 (720 mg) was slowly added to the solution and the mixture was with continuously stirred for 1 h. The homogenate was transferred to separate flask and its pH recorded. The suspension formulation was prepared before administration to the animals.
Adult healthy male New Zealand white rabbits aged approximately 2 to 3 months old were used for experimentation after 7 days of acclimatization.
To dose the filled capsules, a soft plastic dosing tube was used. The filled capsule was inserted into the dosing tube so that the short end of the capsule protrudes slightly from the tip of the tube. The tip of the capsule was dipped in mineral oil to aid swallowing.
To dose the suspension, an infant feeding tube was used. The feeding tube was inserted through the mouth of the rabbit to the oesophagus and the stomach, and ascertained that it has not been placed in the trachea before dosing to the animals. The suspension of the Compound 1 was administered through the feeding tube. After the administration of the suspension, drinking water of approximately 2.0-2.5 mL was administered to flush out the contents in the feeding tube.
The animals were restrained in a rabbit restrainer and blood samples (400-500 μL/time point) were collected via the central ear artery at 0.16, 0.25, 0.50, 1.0, 2.0, 4.0, 6.0, 8.0, 24.0, 48.0 and 72 hours post-dosing. Collected blood specimens were centrifuged at 4000 or 6000 rpm, 4° C. for 10 minutes and plasma samples were separated and stored at −80° C. until analysis.
Concentrations of the analyte of Compound 1 in New Zealand white rabbits was determined using an API 3200 Q-trap LC-MS/MS system.
Chromatographic separation was achieved on Zorbax C18, 50×4.6 mm, 5 μm column with methanol-0.1% formic acid as mobile phase with gradient elution. The flow rate was set at 1.0 mL min^−1. Detection was accomplished by a triple-quadrupole tandem mass spectrometer in multiple-reaction monitoring (MRM) scanning via electrospray ionization source, applied in the positive mode. The optimised mass transition ion-pairs for quantitation were m/z 379.999→125.000 for the compound 1 and m/z 376.165→165.00 for the ISD (Haloperidol). Calibration plots were linear over the range of 11.062 to 20594.820 ng/mL.
The data of plasma concentration to respective time points for the analyte Compound 1 were used for the pharmacokinetic analysis. Pharmacokinetic analysis was performed using non-compartmental analysis (NCA) module of Phoenix WinNonlin 6.3 software to determine the following pharmacokinetic parameters: • Cmax • Tmax • AUC0-t • AUC0-∞ • T1/2 • MRT […]

[3] = after 1st milling (air jet mill)
[4] = after 2nd milling (air jet mill)
[5] = rabbit, enteric coated capsule, rabbit plasma (Examples 5, 6, 7)
[6] = rabbit, non-coated capsule, rabbit plasma (Examples 2, 3, 4)

O=C(Nc1nc(=O)n(Cc2ccc(Cl)cc2)s1)c1ccc(Cl)cc1.[K] [Compound 3, 4-chloro-N-[2-[(4-chlorophenyl)methyl]-3-oxo-1,2,4-thiadiazol-5-yl]benzamide potassium salt]
Particle size distribution D10 [1, 3]: 0.382 μm | Particle size distribution D50 [1, 3]: 3.64 μm | Particle size distribution D90 [1, 3]: 26.2 μm | Particle size distribution D100 [1, 3]: 584 μm | Particle size distribution D10 [1, 4]: 0.289 μm | Particle size distribution D50 [1, 4]: 1.57 μm | Particle size distribution D90 [1, 4]: 11.7 μm | Particle size distribution D100 [1, 4]: 35.3 μm | Particle size distribution D10 ([1]; before milling): 0.876 μm | Particle size distribution D50 ([1]; before milling): 13.4 μm | Particle size distribution D90 ([1]; before milling): 205 μm | Particle size distribution D100 ([1]; before milling): 665 μm | Plasma concentration, mean ([2]; 0.00 h, enteric coated capsule, rabbit): 0.000 ng/mL | Plasma concentration, mean ([2]; 0.00 h, non-coated capsule, rabbit): 0.000 ng/mL | Plasma concentration, mean ([2]; 0.16 h, enteric coated capsule, rabbit): 0.000 ng/mL | Plasma concentration, mean ([2]; 0.16 h, non-coated capsule, rabbit): 169.000 ng/mL | Plasma concentration, mean ([2]; 0.25 h, enteric coated capsule, rabbit): 0.000 ng/mL | Plasma concentration, mean ([2]; 0.25 h, non-coated capsule, rabbit): 255.336 ng/mL | Plasma concentration, mean ([2]; 0.50 h, enteric coated capsule, rabbit): 0.000 ng/mL | Plasma concentration, mean ([2]; 0.50 h, non-coated capsule, rabbit): 457.796 ng/mL | Plasma concentration, mean ([2]; 1.00 h, enteric coated capsule, rabbit): 4.721 ng/mL | Plasma concentration, mean ([2]; 1.00 h, non-coated capsule, rabbit): 2349.624 ng/mL | Plasma concentration, mean ([2]; 2.00 h, enteric coated capsule, rabbit): 93.881 ng/mL | Plasma concentration, mean ([2]; 2.00 h, non-coated capsule, rabbit): 4456.537 ng/mL | Plasma concentration, mean ([2]; 4.00 h, enteric coated capsule, rabbit): 2558.779 ng/mL | Plasma concentration, mean ([2]; 4.00 h, non-coated capsule, rabbit): 16997.495 ng/mL | Plasma concentration, mean ([2]; 6.00 h, enteric coated capsule, rabbit): 7906.592 ng/mL | Plasma concentration, mean ([2]; 6.00 h, non-coated capsule, rabbit): 21418.736 ng/mL | Plasma concentration, mean ([2]; 8.00 h, enteric coated capsule, rabbit): 16147.149 ng/mL | Plasma concentration, mean ([2]; 8.00 h, non-coated capsule, rabbit): 39754.464 ng/mL | Plasma concentration, mean ([2]; 24.00 h, enteric coated capsule, rabbit): 66084.614 ng/mL | Plasma concentration, mean ([2]; 24.00 h, non-coated capsule, rabbit): 75168.570 ng/mL | Plasma concentration, mean ([2]; 48.00 h, enteric coated capsule, rabbit): 79465.599 ng/mL | Plasma concentration, mean ([2]; 48.00 h, non-coated capsule, rabbit): 77379.051 ng/mL | Plasma concentration, mean ([2]; 72.00 h, enteric coated capsule, rabbit): 49785.289 ng/mL | Plasma concentration, mean ([2]; 72.00 h, non-coated capsule, rabbit): 60164.693 ng/mL | improvement in systemic exposure compared with the milled free base active ingredient ([2]; dry milled, capsules, 90 mg/kg oral, rabbit): more modest improvement | AUCextrap ([2]; enteric coated capsule, rabbit plasma (Examples 5, 6, 7)): 69.48 ± 19.80% | AUC(0-inf) [2, 5]: 18600 ± 13800 µg·h/mL | AUC(0-t) [2, 5]: 3990 ± 43.3 µg·h/mL | Cmax [2, 5]: 79.5 ± 5.43 µg/mL | MRT last [2, 5]: 42 ± 0.696 h | Tmax [2, 5]: 48 h | half-life [2, 5]: 7.86 ± 6.6 days | AUC(0-inf) [2, 6]: 9370 ± 3380 µg·h/mL | AUC(0-t) [2, 6]: 4530 ± 589 µg·h/mL | Cmax [2, 6]: 81.9 ± 10.4 µg/mL | MRT last [2, 6]: 39.6 ± 3.88 h | Tmax [2, 6]: 40 ± 13.9 h | half-life [2, 6]: 2.98 ± 0.943 days | AUCextrap ([2]; non-coated capsule, rabbit plasma (Examples 2, 3, 4)): 52.23 ± 10.63%

Source: patent US12162850B2, “Formulations” (Betagenon AB, priority 2019, dated 2024)
